Drawing on patent publication US20240409585A1, “MACROCYCLIC IMMUNOMODULATORS” (priority 2021, published 2024), this text covers IC50 for nine compounds.

Numbered stars: 1 amine (or outer) side, 2 acyl side, 3 side chain; on linkers, the order of the positions; unused ones are H or OH. Bridge positions count the residues as written; N and C are the ends. Square brackets hold non-standard residues; d marks the D form. Peptide text beside a SMILES is read from it. * marks the point of attachment. ξ: configuration not given here. X26 = O=C([C@H](Cc1ccc(-c2cccc(S(=O)(=O)N3CCOCC3)c2)cc1)N[*:1])[*:2]; X45 = CNS(=O)(=O)c1cccc(-c2ccc(C[C@H](N[*:1])C(=O)[*:2])cc2)c1; Bip(4'-COOH) = N[C@@H](Cc1ccc(-c2ccc(C(=O)O)cc2)cc1)C(=O)O; Bip(4'-NHAc) = CC(=O)Nc1ccc(-c2ccc(C[C@H](N)C(=O)O)cc2)cc1; X38 = O=C([C@H](CCCn1cc(-c2ccccc2)nn1)N[*:1])[*:2]; Phe(3-CF3) = N[C@@H](Cc1cccc(C(F)(F)F)c1)C(=O)O; Ala(morpholin-4-yl) = N[C@@H](CN1CCOCC1)C(=O)O; Phe(4-CONH2) = NC(=O)c1ccc(C[C@H](N)C(=O)O)cc1; Phe(4-COOH) = N[C@@H](Cc1ccc(C(=O)O)cc1)C(=O)O; X5 = CS(=O)(=O)NC(=O)C[C@H](N[*:1])C(=O)[*:2]; Bip = N[C@@H](Cc1ccc(-c2ccccc2)cc1)C(=O)O; Phe(3-Me) = Cc1cccc(C[C@H](N)C(=O)O)c1; Val(3-OH) = CC(C)(O)[C@H](N)C(=O)O; Cha = N[C@@H](CC1CCCCC1)C(=O)O; aThr = C[C@H](O)[C@H](N)C(=O)O; Thr(3ξ) = CC(O)[C@H](N)C(=O)O; Carboxymethyl = O=C(O)C*; NMeA = CN[C@@H](C)C(=O)O; Orn = NCCC[C@H](N)C(=O)O; Dab = NCC[C@H](N)C(=O)O

T1 sequence (Q15116 25-288): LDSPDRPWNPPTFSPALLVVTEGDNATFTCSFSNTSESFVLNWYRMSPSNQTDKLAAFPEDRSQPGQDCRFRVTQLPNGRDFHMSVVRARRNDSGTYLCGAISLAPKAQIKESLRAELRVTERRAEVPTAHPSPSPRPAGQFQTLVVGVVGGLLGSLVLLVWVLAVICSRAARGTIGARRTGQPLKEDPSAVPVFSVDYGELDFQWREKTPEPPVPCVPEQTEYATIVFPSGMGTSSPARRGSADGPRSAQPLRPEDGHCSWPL

The first assay addresses T1, Alexa fluor-647 labeled human PD-L1-Ig binding to Jurkat cell line over-expressing human PD-1 (Homo sapiens, UniProt Q15116).
T1 construct: expressed in transfected cells; host or cells: Jurkat
Description: Jurkat-PD-1 Cell Binding High-Content Screening Assay (CBA): Method 3 (Alexa fluor-647 labeled PD-L1-Ig). The note with it: Jurkat-PD-1 cells, Alexa fluor-647 labeled PD-L1-Ig 177 nM; head μM; read-out: CBA Method 3 μM. In short, it runs like this: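 Readout by high-content imaging of PFA-fixed, Hoechst-stained cells after 1 h with 177 nM (final) Alexa fluor-647 PD-L1-Ig. Compound was added first to hPD-1 Jurkat cells in RPMI plus 10% FCS for 2 h at 37 °C.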
On to `Cc1cccc(C[C@@H]2NC(=O)[C@H](CC(=O)O)NC(=O)[C@H](Cc3ccc(-c4ccc(C(=O)O)cc4)cc3)NC(=O)[C@H](CN3CCOCC3)NC(=O)CSC[C@@H](C(=O)N[C@@H](CCN)C(N)=O)NC(=O)[C@H](CO)NC(=O)[C@H](C(C)(C)O)NC(=O)[C@H](CC3CCCCC3)NC(=O)[C@H](CC(N)=O)NC(=O)[C@@H](CC(C)C)NC(=O)[C@H](C)N(C)C(=O)[C@H](Cc3ccc(OCC(=O)O)cc3)NC(=O)[C@H](Cc3ccc(-c4ccccc4)cc3)NC(=O)[C@H](Cc3ccc(-c4ccc(C(=O)O)cc4)cc3)NC2=O)c1` [Example 5130] ({CH2CO}-[Ala(morpholin-4-yl)][Bip(4'-COOH)]D[Phe(3-Me)][Bip(4'-COOH)][Bip]Y(Carboxymethyl)[NMeA][dL]N[Cha][Val(3-OH)]SC[Dab]-NH2; thioether N-14), for which the IC50 worked out at 0.06 µM. On to `Cc1cccc(C[C@@H]2NC(=O)[C@H](CC(=O)O)NC(=O)[C@H](Cc3ccc(OCC(=O)O)cc3)NC(=O)[C@H](CN3CCOCC3)NC(=O)CSC[C@@H](C(=O)N[C@@H](CCN)C(N)=O)NC(=O)[C@H](CCCN)NC(=O)[C@H](C(C)C)NC(=O)[C@H](CC3CCCCC3)NC(=O)[C@H](CCN)NC(=O)[C@@H](CC(C)C)NC(=O)[C@H](C)N(C)C(=O)[C@H](CCC(N)=O)NC(=O)[C@H](Cc3ccc(-c4ccccc4)cc3)NC(=O)[C@H](Cc3ccc(-c4cccc(S(=O)(=O)N5CCOCC5)c4)cc3)NC2=O)c1` [Example 5107] ({CH2CO}-[Ala(morpholin-4-yl)]Y(Carboxymethyl)D[Phe(3-Me)][X26][Bip]Q[NMeA][dL][Dab][Cha]V[Orn]C[Dab]-NH2; thioether N-14), for which the IC50 was found to be 0.33 µM. Turning to `Cc1cccc(C[C@@H]2NC(=O)[C@H](CC(=O)O)NC(=O)[C@H](Cc3ccc(C(=O)O)cc3)NC(=O)[C@H](CC3CCCCC3)NC(=O)CSC[C@@H](C(=O)N[C@@H](CCN)C(N)=O)NC(=O)[C@H](CCC(=O)O)NC(=O)[C@H](C(C)C)NC(=O)[C@H](CC3CCCCC3)NC(=O)[C@H](CCN)NC(=O)[C@@H](CC(C)C)NC(=O)[C@H](C)N(C)C(=O)[C@H](Cc3ccc(C(=O)O)cc3)NC(=O)[C@H](Cc3ccc(-c4ccccc4)cc3)NC(=O)[C@H](Cc3ccc(-c4ccc(C(=O)O)cc4)cc3)NC2=O)c1` [Example 5198] ({CH2CO}-[Cha][Phe(4-COOH)]D[Phe(3-Me)][Bip(4'-COOH)][Bip][Phe(4-COOH)][NMeA][dL][Dab][Cha]VEC[Dab]-NH2; thioether N-14), the IC50 was found to be 0.01 µM. `CC(=O)Nc1ccc(-c2ccc(C[C@@H]3NC(=O)[C@H](Cc4cccc(C(F)(F)F)c4)NC(=O)[C@H](CC(=O)NS(C)(=O)=O)NC(=O)[C@H](Cc4ccc(C(N)=O)cc4)NC(=O)[C@H]([C@H](C)O)NC(=O)CSC[C@@H](C(=O)N[C@@H](CCN)C(N)=O)NC(=O)[C@H](CC(N)=O)NC(=O)[C@H](C(C)C)NC(=O)[C@H](CC4CCCCC4)NC(=O)[C@H](CCN)NC(=O)[C@@H](CC(C)C)NC(=O)[C@H](C)N(C)C(=O)[C@H](Cc4ccc(C(N)=O)cc4)NC(=O)[C@H](Cc4ccc(-c5ccccc5)cc4)NC3=O)cc2)cc1` [Example 5115] ({CH2CO}-[aThr][Phe(4-CONH2)][X5][Phe(3-CF3)][Bip(4'-NHAc)][Bip][Phe(4-CONH2)][NMeA][dL][Dab][Cha]VNC[Dab]-NH2; thioether N-14): the IC50 turned out to be 0.28 µM.

The assay is the same for the next values; noted with them: Jurkat-PD-1 cells, Alexa fluor-647 labeled PD-L1-Ig 177 nM; nM; read-out: CBA Method 3.
With `CC(=O)Nc1ccc(-c2ccc(C[C@@H]3NC(=O)[C@H](Cc4cccc(C)c4)NC(=O)[C@H](CC(=O)O)NC(=O)[C@H](CCCn4cc(-c5ccccc5)nn4)NC(=O)[C@H](CN4CCOCC4)NC(=O)CSC[C@@H](C(=O)N[C@@H](CCN)C(N)=O)NC(=O)[C@H](CCC(N)=O)NC(=O)[C@H](C(C)C)NC(=O)[C@H](CC4CCCCC4)NC(=O)[C@H](CCN)NC(=O)[C@@H](CC(C)C)NC(=O)[C@H](C)N(C)C(=O)[C@H](Cc4ccc(C(=O)O)cc4)NC(=O)[C@H](Cc4ccc(-c5ccccc5)cc4)NC3=O)cc2)cc1` [Example 5295] ({CH2CO}-[Ala(morpholin-4-yl)][X38]D[Phe(3-Me)][Bip(4'-NHAc)][Bip][Phe(4-COOH)][NMeA][dL][Dab][Cha]VQC[Dab]-NH2; thioether N-14), the IC50 was determined as 0.0016 µM. As for `CNS(=O)(=O)c1cccc(-c2ccc(C[C@@H]3NC(=O)[C@H](Cc4cccc(C)c4)NC(=O)[C@H](CC(=O)O)NC(=O)[C@H](Cc4ccc(OCC(=O)O)cc4)NC(=O)[C@H](CN4CCOCC4)NC(=O)CSC[C@@H](C(=O)N[C@@H](CCN)C(N)=O)NC(=O)[C@H](CCCN)NC(=O)[C@H](C(C)C)NC(=O)[C@H](CC4CCCCC4)NC(=O)[C@H](CCN)NC(=O)[C@@H](CC(C)C)NC(=O)[C@H](C)N(C)C(=O)[C@H](CCC(N)=O)NC(=O)[C@H](Cc4ccc(-c5ccccc5)cc4)NC3=O)cc2)c1` [Example 5108] ({CH2CO}-[Ala(morpholin-4-yl)]Y(Carboxymethyl)D[Phe(3-Me)][X45][Bip]Q[NMeA][dL][Dab][Cha]V[Orn]C[Dab]-NH2; thioether N-14), the IC50 was determined as 0.0073 µM. Regarding `Cc1cccc(C[C@@H]2NC(=O)[C@H](CC(=O)O)NC(=O)[C@H](Cc3ccc(C(=O)O)cc3)NC(=O)[C@H](CC3CCCCC3)NC(=O)CSC[C@@H](C(=O)N[C@@H](CCN)C(N)=O)NC(=O)[C@H](CCC(=O)O)NC(=O)[C@H](C(C)C)NC(=O)[C@H](CC3CCCCC3)NC(=O)[C@H](CCN)NC(=O)[C@@H](CC(C)C)NC(=O)[C@H](C)N(C)C(=O)[C@H](Cc3ccc(C(=O)O)cc3)NC(=O)[C@H](Cc3ccc(-c4ccccc4)cc3)NC(=O)[C@H](Cc3ccc(OCC(=O)O)cc3)NC2=O)c1` [Example 5201] ({CH2CO}-[Cha][Phe(4-COOH)]D[Phe(3-Me)]Y(Carboxymethyl)[Bip][Phe(4-COOH)][NMeA][dL][Dab][Cha]VEC[Dab]-NH2; thioether N-14), the IC50 was determined as 0.0062 µM. As to `Cc1cccc(C[C@@H]2NC(=O)[C@H](CC(=O)O)NC(=O)[C@H](Cc3ccc(OCC(=O)O)cc3)NC(=O)[C@H](CN3CCOCC3)NC(=O)CSC[C@@H](C(=O)N[C@@H](CCN)C(N)=O)NC(=O)[C@H](CCC(N)=O)NC(=O)[C@H](C(C)C)NC(=O)[C@H](CC3CCCCC3)NC(=O)[C@H](CCN)NC(=O)[C@@H](CC(C)C)NC(=O)[C@H](C)N(C)C(=O)[C@H](CCC(N)=O)NC(=O)[C@H](Cc3ccc(-c4ccccc4)cc3)NC(=O)[C@H](Cc3ccc(OCC(=O)O)cc3)NC2=O)c1` [Example 5224] ({CH2CO}-[Ala(morpholin-4-yl)]Y(Carboxymethyl)D[Phe(3-Me)]Y(Carboxymethyl)[Bip]Q[NMeA][dL][Dab][Cha]VQC[Dab]-NH2; thioether N-14), the IC50 is 0.0035 µM.

As for `CC(C)C[C@H]1NC(=O)[C@H](C)N(C)C(=O)[C@H](Cc2ccc(OCC(=O)O)cc2)NC(=O)[C@H](Cc2ccc(-c3ccccc3)cc2)NC(=O)[C@H](Cc2ccc(C(=O)O)cc2)NC(=O)[C@H](Cc2cccc(C(F)(F)F)c2)NC(=O)[C@H](CC(=O)O)NC(=O)[C@H](Cc2ccc(OCC(=O)O)cc2)NC(=O)[C@H](C(C)O)NC(=O)CSC[C@@H](C(=O)N[C@@H](CCN)C(N)=O)NC(=O)[C@H]([C@@H](C)O)NC(=O)[C@H](C(C)C)NC(=O)[C@H](CC2CCCCC2)NC(=O)[C@H](CCN)NC1=O` (stereo partly drawn) [Example 5143] ({CH2CO}-[Thr(3ξ)]Y(Carboxymethyl)D[Phe(3-CF3)][Phe(4-COOH)][Bip]Y(Carboxymethyl)[NMeA][dL][Dab][Cha]VTC[Dab]-NH2; thioether N-14), the IC50 stood at 0.007 µM.
